# Measured values taken from article PMC4950319, “Kinetic and structural characterization of amyloid‐β peptide hydrolysis by human angiotensin‐1‐converting enzyme” (The Febs Journal, 2016).
# Entries after “also recorded” stand apart in the source; their conditions may differ.
# Molecular target: T1, sACE (Homo sapiens, UniProt P12821)
# T1 construct: made in house; host or cells: CHO cells; purified from cell lysate
# Assay: Interdomain cooperativity in hydrolysis of Aβ substrates
# Assay type: biochemical
# Procedure: Mixtures were separated on a Poroshell 120 EC‐18 column with a 2.7 μm pore size. The reaction consists of 25 μL substrate incubated with 25 μL enzyme for 15 min at 37 °C and was stopped with the addition of 10 μL of 0.25% trifluoroacetic acid (TFA). The total reaction (60 μL) was cleared of contaminants on a spin column (GHP Nanosep® MF Centrifugal Device 0.45 μm pore size) and run on the HPLC. Kinetic parameters were determined through the fitting of initial rates to the Michaelis–Menten equation with […] PRISM software (v 4.01, GraphPad Prism®).
# The reaction was incubated for 15 min at 37 °C and stopped with the addition of 10 μL 0.25% TFA to make up a total volume of 60 μL. The reactions were performed in triplicate and 50 μL injections were analysed via HPLC (Agilent Technologies) across a gradient of 0.1% TFA and 2% ACN in water to 0.1% TFA, 95% ACN. A calibration curve was set up to convert the product peak area to picomoles product formed, through the complete hydrolysis of the substrate with the N‐domain. […] Kinetic constants were calculated using the Michaelis–Menten method using […] […]
# The assay is a modified form of the continuous assay 7 where the assay is set up on ice in triplicate in a 96‐well plate. The baseline fluorescence was at time zero and then the substrate was incubated at 37 °C and fluorescence read at the 45 min time point on a Cary Eclipse spectrofluorimeter (Varian Inc.) at λex = 320 nm and λem = 420 nm. Again, kinetic constants were calculated using the Michaelis–Menten method with […] […] The detected fluorescence was converted to picamoles product formed through the slope of a calibration curve of Abz‐Gly. […]
# An alternative fluorogenic peptide, Abz‐FRHDSG‐(NT) (BIOPEP™ South Africa) was assayed, with 100 μL enzyme and 100 μL substrate (at a final enzyme concentration within 10% hydrolysis of total substrate; see Table 3) as above, in 96‐well plates. The samples were read at the 5 min time point on a Cary Eclipse spectrofluorimeter (Varian Inc.) at λex = 320 nm and λem = 420 nm. Kinetic constants, inner filter effect and standard curves were calculated as above.
# T1 sequence (P12821 30-1306): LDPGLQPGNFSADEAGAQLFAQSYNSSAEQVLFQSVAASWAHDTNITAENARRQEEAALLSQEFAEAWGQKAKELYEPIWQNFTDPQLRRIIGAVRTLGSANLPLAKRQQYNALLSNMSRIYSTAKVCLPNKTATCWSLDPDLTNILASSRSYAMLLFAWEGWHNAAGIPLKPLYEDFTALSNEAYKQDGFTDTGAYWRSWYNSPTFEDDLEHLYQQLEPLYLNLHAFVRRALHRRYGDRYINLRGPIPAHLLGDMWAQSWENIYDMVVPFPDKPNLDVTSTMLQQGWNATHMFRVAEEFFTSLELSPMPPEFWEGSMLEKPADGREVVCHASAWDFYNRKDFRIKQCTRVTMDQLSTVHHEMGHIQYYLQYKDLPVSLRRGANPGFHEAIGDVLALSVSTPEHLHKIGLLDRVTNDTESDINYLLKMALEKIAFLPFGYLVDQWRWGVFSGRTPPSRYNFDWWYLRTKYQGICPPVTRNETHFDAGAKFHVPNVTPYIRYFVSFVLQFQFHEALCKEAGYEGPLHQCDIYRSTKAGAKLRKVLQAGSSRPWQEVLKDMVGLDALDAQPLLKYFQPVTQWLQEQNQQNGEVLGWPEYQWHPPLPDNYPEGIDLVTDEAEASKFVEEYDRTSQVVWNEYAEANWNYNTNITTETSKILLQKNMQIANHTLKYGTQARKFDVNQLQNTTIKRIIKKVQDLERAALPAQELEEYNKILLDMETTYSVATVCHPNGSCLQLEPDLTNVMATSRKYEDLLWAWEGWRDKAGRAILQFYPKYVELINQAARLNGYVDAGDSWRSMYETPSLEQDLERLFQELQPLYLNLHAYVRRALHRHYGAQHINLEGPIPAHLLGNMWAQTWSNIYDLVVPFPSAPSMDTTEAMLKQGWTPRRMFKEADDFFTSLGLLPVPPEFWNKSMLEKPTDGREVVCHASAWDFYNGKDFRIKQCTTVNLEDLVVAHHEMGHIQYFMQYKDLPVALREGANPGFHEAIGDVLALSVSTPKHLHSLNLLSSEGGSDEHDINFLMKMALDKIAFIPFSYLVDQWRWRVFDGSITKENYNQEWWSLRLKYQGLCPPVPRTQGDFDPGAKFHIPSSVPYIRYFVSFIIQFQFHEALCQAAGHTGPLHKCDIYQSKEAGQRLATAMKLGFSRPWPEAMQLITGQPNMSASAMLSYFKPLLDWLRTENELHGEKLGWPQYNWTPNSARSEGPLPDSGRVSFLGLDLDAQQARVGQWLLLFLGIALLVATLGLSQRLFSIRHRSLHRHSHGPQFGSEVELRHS
substance,measurement,setting,value
"Abz‐FRHDSG‐(NT) [Aβ(4–10)Y, fluorogenic Aβ(4–10) peptide with NT quencher substituting for Tyr]","interdomain cooperativity, full‐length constructs",examination of the N‐sACE and C‐sACE constructs,positive domain cooperativity; also recorded: a positive form of cooperativity
same,"interdomain cooperativity, truncated domains taken into account",truncated domains versus sACE,a negative effect on the activity of sACE
